This is an account of results in patent publication US20250228862A1, “METHODS OF USING ATR INHIBITORS” (Repare Therapeutics Inc., priority 2022, published 2025).

SMILES strings stand for the structures.

The subject of one data set is T24 STAG2 KO cells. Kind of data set: Colony formation of bladder carcinoma cells deficient for STAG2. Type of data set: cell-based. The following applies: 9 days treatment, crystal violet. As for the experimental part: FIG. 2: compound 121 preferentially induces cell death in bladder carcinoma cells deficient for STAG2. The STAG2 gene was knocked out in T24 cells using CRISPR-Cas9 (clone 1 and 2). Cells were seeded in 6-well plate format and treated with indicated dose of compound 121 for 9 days. Cells were then fixed and stained using a crystal violet-methanol solution. Colonies were counted, and percentage of survival was determined by normalizing the number of colonies after treatment to the number of colonies in the non-treated conditions.
Because bladder carcinoma is a cancer where STAG2-deficient tumors have been observed, we sought to recapitulate our observation in a cell model originated from bladder carcinoma. Using a similar approach as previously, we generated T24 cells deficient for STAG2.

In data set [1] the test system is SETD2 wild-type and SETD2-mutated (LOF) renal and colorectal carcinoma cell lines. Kind of data set: CellTiter Glo viability in SETD2 WT and LOF cell line panel. It is filed as cell-based. The following applies: three SETD2-deficient vs six SETD2-proficient lines; 4-8 population doublings; on average. An excerpt: FIG. 4A: Representative immunoblot showing SETD2 expression in whole-cell extracts from six SETD2 wild-type (WT) renal and colorectal carcinoma cell lines and loss of SETD2 in three SETD2-mutated (LOF) cell lines. Vinculin was used as a loading control.
FIG. 4B: compound 121 IC50 values from CellTiter Glo viability assays of SETD2 WT and LOF cell lines treated with compound 121 for 4-8 population doublings. Circles represent mean IC50 values from ≥3 independent experiments. Bars, mean of each cohort (WT or LOF); error bars, ±SD.
To study whether SETD2 deficiency leads to ATRi sensitivity in a more clinically relevant context, we assembled a panel of six SETD2-proficient and three SETD2-deficient renal clear cell carcinoma and colorectal carcinoma cell lines (FIG. 4A) and treated them with compound 121.
(Cellular ATP, detected with luciferase, serves as a proxy for viable cell number.)

Data set [2] relates to CDK12 wild-type (+/+) and knockout (−/−) RPE1 TP53−/− cells. Kind of data set: CellTiter Glo viability, isogenic CDK12 +/+ and -/- RPE1 TP53-/- cells. Type of data set: cell-based, human. The conditions noted are these: RPE1-hTERT-ΔTP53. The method, then: FIG. 5A: Dose-response curves of isogenic CDK12 wild-type (+/+) and knockout (−/−) RPE1 TP53−/− cells treated with compound 121. Cell viability was measured by CellTiter Glo assays. Open symbols represent mean from three independent experiments±SD. Solid lines show a non-linear least square fit to a four-parameter dose-response model. Approximately a 2× shift in IC50 was observed.
(§1) To assess the effect of CDK12 inactivation on ATRi sensitivity we used isogenic cell line pairs in the RPE1-hTERT-ΔTP53 and DLD1 human cell line backgrounds, where we compared clones carrying a CRISPR/Cas9-generated knockout of the CDK12 gene (CDK12−/−) with the parental, CDK12-wild type controls (CDK12+/+).

The test system of data set [3] is CDK12 wild-type (+/+) and knockout (−/−) DLD1 cells. Kind of data set: CellTiter Glo viability, isogenic CDK12 +/+ and -/- DLD1 cells. Type of data set: cell-based, human. The method, then:
FIG. 5B: Dose-response curves of isogenic CDK12 wild-type (+/+) and knockout (−/−) DLD1 cells treated with compound 121. Cell viability was measured by CellTiter Glo assays. Open symbols represent mean from three independent experiments ±SD. Solid lines show a non-linear least square fit to a four-parameter dose-response model. Approximately a 3× shift in IC50 was observed.
as §1

Data set [4] deals with RNASEH2B wild-type (+/+) and knockout (−/−) 5637 cells. Kind of data set: CellTiter Glo viability, isogenic RNASEH2B +/+ and -/- 5637 cells. Type of data set: cell-based, human. The method, then: FIG. 6B: Dose-response curves of isogenic RNASEH2B wild-type (+/+) and knockout (−/−) 5637 cells treated with compound 121. Cell viability was measured by CellTiter Glo assays. Open symbols represent mean from three independent experiments±SD. Solid lines show a non-linear least square fit to a four-parameter dose-response model. […] Approximately a 4× shift in IC50 was observed.
The RNase H2 protein complex is composed of three subunits encoded by the RNASEH2A, RNASEH2B and RNASEH2C genes in a manner, where all three subunits are required for the complex' stability and activity. To determine whether RNase H2 deficiency increases cellular sensitivity to ATRi, we inactivated the RNASEH2B gene in two human cell lines, RPE1-hTERT-ΔTP53 and 5637, using CRISPR/Cas9 (note that this leads to complete loss of the RNase H2 complex).

For data set [5], the system named is triple-negative breast cancer (TNBC) PDX tumors with RNASEH2B IHC loss. Kind of data set: TNBC PDX tumor growth with RNASEH2B IHC loss. Type of data set: in vivo. The method, then:
FIG. 8A: Growth of subcutaneously implanted triple-negative breast cancer (TNBC) PDX tumors with RNASEH2B IHC loss in immunodeficient mice. Mice were treated by oral gavage with either vehicle or indicated doses of compound 121 once daily at a 3 day on/4 day off intermittent weekly schedule. Data are shown as mean±SEM. N=9 mice/group.
FIG. 8B: Immunohistochemical (IHC) staining of the PDX model from FIG. 8A (top) and a control, RNase H2-proficient PDX (bottom) with an RNase H2-specific antibody.
To confirm that RNase H2-deficiency sensitizes to ATRi treatment also in vivo, we developed the isogenic 5637 RNASEH2B+/+ and RNASEH2B−/− bladder carcinoma cell lines as subcutaneous xenografts in immunodeficient mice and treated them with compound 121 or a vehicle control. […] Furthermore, we identified a patient-derived xenograft (PDX) of a triple negative breast cancer, that was RNase H2-deficient as confirmed by immunohistochemistry with a RNase H2-specific antibody.

Another data set concerns RPE1 Cas9 TP53−/− cells. Kind of data set: CellTiter Glo viability after sgRNA inactivation of RAD51B, RAD51C or RAD51D. It is filed as cell-based, human. As for the experimental part: FIG. 9A: compound 121 dose-response curves of RPE1 Cas9 TP53−/− cells transduced with either a control sgRNA (sgAAVS1) or two sgRNAs targeting RAD51B. Cell viability was determined with a CellTiter Glo assay. Open symbols show mean viability from three independent experiments±SD. Solid lines represent a non-linear least square fit to a four-parameter dose-response model.
FIG. 9B: compound 121 dose-response curves of RPE1 Cas9 TP53−/− cells transduced with either a control sgRNA (sgAAVS1) or two sgRNAs targeting RAD51C. Cell viability was determined with a CellTiter Glo assay. Open symbols show mean viability from three independent experiments±SD. Solid lines represent a non-linear least square fit to a four-parameter dose-response model.
FIG. 9C: compound 121 dose-response curves of RPE1 Cas9 TP53−/− cells transduced with either a control sgRNA (sgAAVS1) or two sgRNAs targeting RAD51D. Cell viability was determined with a CellTiter Glo assay. Open symbols show mean viability from three independent experiments±SD. Solid lines represent a non-linear least square fit to a four-parameter dose-response model.
To determine the impact of RAD51B, RAD51C or RAD51D deficiency on ATRi sensitivity we individually inactivated these genes in Cas9-expressing RPE1-hTERT-ΔTP53 cells using two independent sgRNAs per gene.

In the case of `C[C@@H]1COCCN1c1cc([C@]2(O)C[C@H]3CC[C@@H](C2)O3)c2cnn(-c3cc[nH]n3)c2n1` [compound 121], the “Colony formation after treatment, T24-STAG2 KO” value in the data set with T24 STAG2 KO cells was “colony formation of T24-STAG2 KO cells was impaired”. For the same molecule, the “Sensitivity (CTG IC50) of SETD2-deficient vs SETD2-proficient cell lines” value in data set [1] is listed as “SETD2-deficient cell lines were more sensitive”. For the same molecule, the “Sensitivity of CDK12-deficient vs parental cells” value in data set [2] and in data set [3] was “increased sensitivity” in each case. The “Sensitivity of RNase H2-deficient vs wild-type cells” value in data set [4] was “more sensitive”. Further, the “Tumor response at the maximum tolerated dose” value in data set [5] (maximum tolerated dose, oral gavage, 3 day on/4 day off) is recorded as “tumor regressions”. Moreover, in data set [5] (oral gavage once daily, 3 day on/4 day off weekly schedule), the “Response of PDX model to treatment” value was “responsive”. In addition, the “Sensitization upon gene inactivation (CTG viability)” value in the data set on RPE1 Cas9 TP53−/− cells (two sgRNAs targeting RAD51B vs sgAAVS1), in the data set on RPE1 Cas9 TP53−/− cells (two sgRNAs targeting RAD51C vs sgAAVS1) and in the data set on RPE1 Cas9 TP53−/− cells (two sgRNAs targeting RAD51D vs sgAAVS1) was “sensitized cells to compound 121 treatment to a comparable extent” in each case.
